Experiment [1] relates to P. aeruginosa strain PAO1. Put plainly: Static biofilm inhibition assay (crystal violet), PAO1. Conditions: for IC50 / inhibition at 500 µM: Pseudomonas aeruginosa, PAO1; for IC50: inhibition of biofilm formation, crystal violet, 24 hours. The class given is cell-based, Pseudomonas aeruginosa. The method, then: Each compound was assayed for the ability to inhibit the formation of P. aeruginosa biofilms. […] We employed a standard crystal violet reporter assay to assess for the formation of biofilms. Briefly, P. aeruginosa strain PAO1 was allowed to form biofilms in a multi-well plate in the absence or presence of our compounds. Planktonic (or free growing) bacteria were then removed, wells washed vigorously, and crystal violet added. Crystal violet stains the remaining bacteria which, following ethanol solubilization, can be quantitated by spectrophotometry (A540).
(§1) An overnight culture of the bacterial strain being screened against was subcultured at an OD600 of 0.1 into the media used (listed below with strain) and then pipetted into test tubes along with a predetermined concentration of our compound of interest. Test tubes were then poured into tilted Petri dishes and 100 μL of media, strain and compound were then transferred into 96-well PVC microtiter plates. These microtiter plates were then covered, wrapped in Saran™ Wrap polyethylene film (S.C. Johnson, Racine, Wis.) and allowed to incubate at 37° C. for 24 hours. After that time, the medium was discarded and the plates were thoroughly washed with water. The remaining biofilm that was formed during incubation was stained with 100 μL of a 0.1% crystal violet solution and allowed to incubate at room temperature for 30 minutes. After 30 minutes, the crystal violet was discarded and washed thoroughly again with water. The remaining crystal violet that had stained the biofilm in the inside walls of the 96-well PVC plates was solubilized with 200 μL of 95% ethanol. The quantification of biofilm formation was accomplished by transferring 125 μL of the ethanol solution into a polystyrene microtiter dish, which was read by spectrophotometry (A540). After the background has been subtracted from each row, a percent inhibition can be calculated by dividing the amount of crystal violet in wells that contained compound by the amount of crystal violet in wells that contained bacteria only. Each concentration reported during the course of this study was repeated two to five times with each of those biofilm inhibition assays being done in 6 replicates each.
(§2) An overnight culture of the wild type strain was subcultured at an OD600 of 0.10 into LBNS along with a predetermined concentration of the small molecule to be tested for biofilm inhibition. Samples were then aliquoted (100 μL) into the wells of a 96-well PVC microtiter plate. The microtiter dishes were covered and sealed before incubation under stationary conditions at 37° C. for 24 hours. After that time, the medium was discarded and the plates thoroughly washed with water. The wells were then inoculated with a 0.1% aqueous solution of crystal violet (100 μL) and allowed to stand at ambient temperature for 30 minutes. Following another thorough washing with water the remaining stain was solubilized with 200 μL of 95% ethanol. Biofilm inhibition was quantitated by measuring the OD540 for each well by transferring 125 μL of the ethanol solution into a fresh polystyrene microtiter dish for analysis.
(§3) To examine each compound's ability to inhibit the formation of Pseudomonas aeruginosa biofilms, PAO1 and PA14 were employed as the target bacterial strains using a crystal violet reporter assay. G. A. O'Toole, R. Kolter, Mol. Microbiol. 1998, 28, 449. All compounds were initially screened at 500 μM for anti-biofilm activity.
An overnight culture of the wild type strain was subcultured at an OD600 of 0.10 into LBNS along with a predetermined concentration of the small molecule to be tested for biofilm inhibition. Samples were then aliquoted (100 μL) into the wells of a 96-well PVC microtiter plate. The microtiter dishes were covered and sealed before incubation under stationary conditions at 37° C. for 24 hours, After that time, the medium was discarded and the plates thoroughly washed with water. […]

A further experiment deals with P. aeruginosa PA14. Put plainly: Static biofilm inhibition assay (crystal violet), PA14. The class given is cell-based, Pseudomonas aeruginosa. The following applies: for IC50 / inhibition at 500 µM: Pseudomonas aeruginosa; for IC50: PA14, inhibition of biofilm formation, crystal violet, 24 hours; for inhibition at 500 µM: PA14, 24 h. How it is done: as §1, §2, §3
as §2, with “for 24 hours, After that” for “for 24 hours. After that”, “violet (100 pt) and allowed” for “violet (100 μL) and allowed”

Structures can show the parent of a compound that is named as a salt. Some results are limits rather than exact numbers.

Usually IC50 stands for the concentration needed to halve the response being measured. Higher therefore signals weaker potency in that assay. In the case of `CCCCCCNC(=O)CCCc1c[nH]c(N)n1` [Compound 9, 4-(2-amino-1H-imidazol-4-yl)-N-hexyl-butyramide hydrochloride], the values for the 50% inhibitory concentration (IC50) (in experiment [1]; in the experiment with P. aeruginosa PA14) were 32.7 ± 6.5 µM and 39.9 ± 13 µM, respectively.

Turning to `CCCCCCCCNC(=O)CCCc1c[nH]c(N)n1` [Compound 10, 4-(2-amino-1H-imidazol-4-yl)-N-octyl-butyramide hydrochloride], the half-inhibitory concentration (IC50) in experiment [1] came to 18.4 ± 2.3 µM; in the experiment with P. aeruginosa PA14, 13.3 ± 1.8 µM.

What is called inhibition is the change of the read-out against control, counted positive when it falls. Consider `Cl.Nc1nc(CCCNC(=O)c2ccc[nH]2)c[nH]1` [Compound 17, 1H-pyrrole-2-carboxylic acid [3-(2-amino-1H-imidazol-4-yl)-propyl]-amide hydrochloride], for which the “% Biofilm Inhibition at 500 μM vs PAO1” value in experiment [1] (500 μM, hydrochloride) is recorded as less than 10%. Moreover, the inhibition at 500 µM in experiment [1] is less than 10%; with P. aeruginosa PA14, 16%.

In experiment [1], `Nc1nc(CCCNC(=O)c2cc(Br)c[nH]2)c[nH]1` [Compound 18, 4-bromo-1H-pyrrole-2-carboxylic acid [3-(2-amino-1H-imidazol-4-yl)-propyl]-amide hydrochloride] had an inhibition at 500 µM of 74% and an IC50 of 323 ± 30 µM. Moreover, in the experiment on P. aeruginosa PA14, the inhibition at 500 µM was 86% and the IC50 came out at 266 ± 23 µM.

`Nc1nc(CCCNC(=O)c2cc(Br)c(Br)[nH]2)c[nH]1` [Compound 19, 4,5-dibromo-1H-pyrrole-2-carboxylic acid [3-(2-amino-1H-imidazol-4-yl)-propyl]-amide hydrochloride]: the inhibition at 500 µM (in experiment [1]; with P. aeruginosa PA14) was less than 70% each time.

Take `Nc1nc(CCCNC(=O)c2cc(Cl)c(Cl)[nH]2)c[nH]1` [Compound 20, 4,5-dichloro-1H-pyrrole-2-carboxylic acid [3-(2-amino-1H-imidazol-4-yl)-propyl]-amide hydrochloride]: the inhibition at 500 µM in experiment [1] was found to be 37%; with P. aeruginosa PA14, 48%.

For the compound `Cl.Cn1cccc1C(=O)NCCCc1c[nH]c(N)n1` [Compound 21, 1-methyl-pyrrole-2-carboxylic acid [3-(2-amino-1H-imidazol-4-yl)-propyl]-amide hydrochloride], 500 µM produced 25% inhibition in experiment [1]. In addition, the “inhibition of PA14 biofilm formation (in words)” value with P. aeruginosa PA14 (screen at 500 μM) was “inactive”.

On to `Cn1cc(Br)cc1C(=O)NCCCc1c[nH]c(N)n1` [Compound 22, 4-bromo-1-methyl-pyrrole-2-carboxylic acid [3-(2-amino-1H-imidazol-4-yl)-propyl]-amide hydrochloride], for which, in experiment [1], the inhibition at 500 µM came out at 88% and the IC50 stood at 348 ± 13 µM. In the experiment on P. aeruginosa PA14, this compound came in with an inhibition at 500 µM of 83% and an IC50 of 309 ± 16 µM.

Take `Cn1c(C(=O)NCCC=C2NC(N)=NC2=O)cc(Br)c1Br` [Compound 32, 4,5-dibromo-1-methyl-pyrrole-2-carboxylic acid [3-(2-amino-5-oxo-3,5-dihydro-imidazol-4-ylidene)-propyl]-amide hydrochloride, reference compound]: the inhibition at 500 µM (in experiment [1]; with P. aeruginosa PA14) was less than 20% in each case.

For the compound `O=C(NCCc1c[nH]cn1)c1ccc[nH]1` [Compound 34, 1H-pyrrole-2-carboxylic acid [2-(1H-imidazol-4-yl)-ethyl]amide hydrochloride], the values for the inhibition at 500 µM (in experiment [1]; with P. aeruginosa PA14) were 42% and 31%, respectively.

As for `O=C(NCCc1c[nH]cn1)c1cc(Br)c[nH]1` [Compound 35, 4-bromo-1H-pyrrole-2-carboxylic acid [2-(1H-imidazol-4-yl)-ethyl]-amide hydrochloride], the inhibition at 500 µM came out at 46% in experiment [1] and 43% in the experiment on P. aeruginosa PA14.

For the compound `O=C(NCCc1c[nH]cn1)c1cc(Br)c(Br)[nH]1` [Compound 36, 4,5-dibromo-1H-pyrrole-2-carboxylic acid [2-(1H-imidazol-4-yl)-ethyl]-amide hydrochloride], the inhibition at 500 µM in experiment [1] was found to be 73%; in the experiment with P. aeruginosa PA14, 69%.

For `O=C(NCCc1c[nH]cn1)c1cc(Cl)c(Cl)[nH]1` [Compound 37, 4,5-dichloro-1H-pyrrole-2-carboxylic acid [2-(1H-imidazol-4-yl)-ethyl]-amide hydrochloride], the inhibition at 500 µM in experiment [1] was determined as 33%; in the experiment with P. aeruginosa PA14, 38%.

Take `Cn1cccc1C(=O)NCCc1c[nH]cn1` [Compound 38, 1-methyl-pyrrole-2-carboxylic acid [2-(1H-imidazol-4-yl)-ethyl]amide hydrochloride]: the inhibition at 500 µM in experiment [1] was determined as 29%; with P. aeruginosa PA14, 34%.

`Cn1cc(Br)cc1C(=O)NCCc1c[nH]cn1` [Compound 39, 4-bromo-1-methyl-pyrrole-2-carboxylic acid [2-(1H-imidazol-4-yl)-ethyl]amide hydrochloride]: the figures for the inhibition at 500 µM (in experiment [1]; with P. aeruginosa PA14) were 37% and 21%, respectively.

On to `O=C(NCCCc1c[nH]c(=S)[nH]1)c1ccc[nH]1` [Compound 43, 1H-pyrrole-2-carboxylic acid [3-(2-thioxo-2,3-dihydro-1H-imidazol-4-yl)-propyl]-amide], for which the figures for the inhibition at 500 µM (in experiment [1]; in the experiment on P. aeruginosa PA14) were 39% and 33%, respectively.

Consider `O=C(NCCCc1c[nH]c(=S)[nH]1)c1cc(Br)c[nH]1` [Compound 44, 4-bromo-1H-pyrrole-2-carboxylic acid [3-(2-thioxo-2,3-dihydro-1H-imidazol-4-yl)-propyl]-amide], for which the inhibition at 500 µM in experiment [1] came out at 28%; in the experiment with P. aeruginosa PA14, 14%.

Take `O=C(NCCCc1c[nH]c(=S)[nH]1)c1cc(Br)c(Br)[nH]1` [Compound 45, 4,5-dibromo-1H-pyrrole-2-carboxylic acid [3-(2-thioxo-2,3-dihydro-1H-imidazol-4-yl)-propyl]-amide]: the inhibition at 500 µM in experiment [1] came to 61%; in the experiment on P. aeruginosa PA14 it was 56%.

Consider `O=C(NCCCc1c[nH]c(=S)[nH]1)c1cc(Cl)c(Cl)[nH]1` [Compound 46, 4,5-dichloro-1H-pyrrole-2-carboxylic acid [3-(2-thioxo-2,3-dihydro-1H-imidazol-4-yl)-propyl]-amide], for which the figures for the inhibition at 500 µM (in experiment [1]; with P. aeruginosa PA14) were 41% and 38%, respectively.

In the case of `Cn1cccc1C(=O)NCCCc1c[nH]c(=S)[nH]1` [Compound 47, 1-methyl-pyrrole-2-carboxylic acid [3-(2-thioxo-2,3-dihydro-1H-imidazol-4-yl)-propyl]-amide], the inhibition at 500 µM in experiment [1] was 27%; with P. aeruginosa PA14 it was 36%.

In the case of `Cn1cc(Br)cc1C(=O)NCCCc1c[nH]c(=S)[nH]1` [Compound 48, 4-bromo-1-methyl-pyrrole-2-carboxylic acid [3-(2-thioxo-2,3-dihydro-1H-imidazol-4-yl)-propyl]-amide], the figures for the inhibition at 500 µM (in experiment [1]; with P. aeruginosa PA14) were 41% and 57%, respectively.

With `Cn1c(C(=O)NCCCc2c[nH]c(=S)[nH]2)cc(Br)c1Br` [Compound 49, 4,5-dibromo-1-methyl-pyrrole-2-carboxylic acid [3-(2-thioxo-2,3-dihydro-1H-imidazol-4-yl)-propyl]-amide], the inhibition at 500 µM in experiment [1] came out at 46%; in the experiment on P. aeruginosa PA14 it was 38%.

(Values after patent publication US9084423B2, “Inhibition of bacterial biofilms with imidazole derivatives” (North Carolina State University, priority 2007, dated 2015).)
